# Data reported in PubChem BioAssay (NCI).
# “And” between values parts separate entries of the source, which are not always exact repeats. Identical values can stand only once.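 Compound exposure: 48 hours, 5 concentrations, 96-well plates. GI50 = concentration required for 50% inhibition of growth. TGI: total growth inhibition.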
# How the values were obtained:
# Assay in all cases: growth of human tumour cells (NCI), 48 h
# BT-549 breast = system: BT-549 breast
# CCRF-CEM leukemia = system: CCRF-CEM leukemia
# HCT-116 colon = system: HCT-116 colon
# IGROV1 ovarian = system: IGROV1 ovarian
# NCI-H23 lung = system: NCI-H23 lung
# NCI-H460 lung = system: NCI-H460 lung
# SF-295 CNS = system: SF-295 CNS
# SN12C renal = system: SN12C renal
# SNB-75 CNS = system: SNB-75 CNS
# HL-60(TB) leukemia = system: HL-60(TB) leukemia
SMILES,TGI (BT-549 breast) [µM],TGI (CCRF-CEM leukemia) [µM],TGI (HCT-116 colon) [µM],TGI (IGROV1 ovarian) [µM],TGI (NCI-H23 lung) [µM],TGI (NCI-H460 lung) [µM],TGI (SF-295 CNS),TGI (SN12C renal) [µM],TGI (SNB-75 CNS) [µM],GI50 (BT-549 breast) [µM],GI50 (CCRF-CEM leukemia) [µM],GI50 (HCT-116 colon) [µM],GI50 (HL-60(TB) leukemia) [µM],TGI (HL-60(TB) leukemia) [µM],GI50 (IGROV1 ovarian) [µM],GI50 (NCI-H23 lung) [µM],GI50 (NCI-H460 lung) [µM],GI50 (SF-295 CNS) [µM],GI50 (SN12C renal) [µM],GI50 (SNB-75 CNS) [µM]
C=C(C)C1CCC2=CC(CC3(C)OC3C3=CC(C(=O)OC)=C(C1)O3)OC2=O (stereo unspecified),> 100,> 100,> 100,> 100,> 100,> 100,> 100 µM,> 100,> 100,,,,,,,,,,,
C[C@@]1(C(=O)O)CCC[C@]2(C)C1CC[C@]13C[C@@](O)(CO)[C@](O)(CC[C@]12O)C3 (stereo partly specified),> 100,> 100,> 100,> 100,> 100,> 100,> 100 µM,> 100,> 100,> 100,> 100,> 100,> 100,> 100,> 100,> 100,> 100,> 100,> 100,> 100
O=c1cc(-c2ccccc2)oc2cc(OCCCCCN3CCOCC3)cc(O)c12,> 100,> 100,64.8,> 100,,> 100,> 100 µM,> 100,15.2,77.5,94.5,19.2,71,> 100,47.4,,90.1,40.2,> 100,3.64
Cc1ccc(-c2c3c(nn2-c2ccc(S(=O)(=O)NC(=O)NC4CCCCC4)cc2)-c2ccccc2C3)cc1,26.5,,15.9,27.9,27.1,26.3,48.7 µM,35.6,45.5,11.4,,3.3,5.17,21.4,12.9,10.9,8.75,18.7,19.4,20.4
Cn1c2c(c3ccccc3c1=O)C(=O)c1ccccc1-2,> 100,> 100,> 100,> 100,> 100,,> 100 µM,> 100,> 100,,,,,> 100,,,,,,
Cc1nn(Cc2ccccc2)cc1C(=O)Nc1sc2c(c1C(N)=O)CCC(=O)C2,7.82,17.1,4.33,7.96,7.22,21.2,8.07 µM,7.74,6.81,2.56,0.789,1.28,,,2.44,2.52,3.52,2.68,2.61,1.74
COc1ccc(/C=C\c2cc(OC)c(OC)c(OC)c2)cc1OC(=O)CC(N)C(=O)O (stereo unspecified),,,,> 100,0.0465,,0.00305 µM and 0.00613 µM,> 100,,,0.000495,4.07e-05,0.000165,,0.00355,0.000635,0.00048,0.000726,0.00412,0.00286
C[C@]12Cc3conc3C(O)=C1CC[C@@H]1C2CC[C@@]2(C)C1CC[C@]2(C)O (stereo partly specified),,46.5,39.3,62.2,49.9,36.3,74.3 µM,> 100,32.4,,,,,10.7,,,,,,
CN(C)CC1C(=O)O[C@H]2[C@H]1CC/C(COC(=O)NCc1ccc(Cn3c(=O)sn(CCCI)c3=O)cc1)=C\CC[C@@]1(C)O[C@@H]21 (stereo partly specified),7.93,7.88,1.6,1.97,12.9,17.2,14.5 µM,2.12,9.51,1.84,1.46,0.793,,,0.922,4.56,7.77,7.43,0.958,2.73
CCCS(=O)c1nc(COC(=O)NC)c(COC(=O)NC)n1C (stereo unspecified),,> 100,> 100,> 100,> 100,> 100,> 100 µM,> 100,> 100,,,,,> 100,,,,,,
Cc1cc(-c2nc3n(c2/C=N/N=C(N)N)CCS3)c(C)s1,42.5,37.1,28.7,,28.2,35.7,29 µM,28.9,48.8,23.1,12.7,15.4,36.9,> 100,,15,19.6,15.6,14.9,29.9
O=C1CC(Cc2n[nH]c3c2CCCC3)CC(=O)N1,> 100,> 100,> 100,> 100,> 100,,> 100 µM,> 100,> 100,,,,,> 100,,,,,,
COC(=O)C(=O)C(C(C)=O)C(=O)NCc1ccccc1 (stereo unspecified),,> 100,> 100,> 100,> 100,> 100,> 100 µM,> 100,> 100,,,,,> 100,,,,,,
COc1cc2c3cc1Oc1c(OC)c(OC)cc4c1[C@@H](Cc1ccc(O)c(c1)Oc1ccc(cc1)C[C@@H]3N(C)CC2)N(C)CC4,,45.2,21.1,36.9,61.3,75.6,30.9 µM,46.5,23.2,,,,,26.4,,,,,,
O=C1C(Cl)=C(Cl)C(=O)N1c1cccc(C(F)(F)F)c1,,> 85.3,> 100,> 100,> 100,> 100,> 100 µM,> 100,> 100,,,,,> 100,,,,,,
CC(C)N1C(C)[C@@H](c2ccccc2)O[P@@]1(=O)CC1=CCCCC1 (stereo partly specified),,> 100,> 100,> 100,> 100,> 100,> 100 µM,> 100,> 100,,,,,63.7,,,,,,
COc1cccc2c(SCC(=O)Nc3ccccc3-c3ccccc3NC(=O)CSc3c4ccccc4nc4c(OC)cccc34)c3ccccc3nc12,,> 100,> 100,> 100,> 100,> 100,> 100 µM,> 100,44.5,,,,,> 100,,,,,,
C=C1C(=O)O[C@H]2[C@H]1CC/C(COC(=O)CCCCCCCC(=O)OC/C1=C/CC[C@@]3(C)O[C@H]3[C@H]3OC(=O)C(=C)[C@@H]3CC1)=C\CC[C@@]1(C)O[C@@H]21,3.45,7.49,,5.92,6.52,9.1,15.2 µM,9.33,35.9,1.59,0.476,,1.04,4.87,2.22,2.26,3.06,3.6,2.75,12.3
COc1cc2c3c(n([C@@H]4CCOC4)c(=O)c2cc1OC)-c1cc2c(cc1C3=O)OCO2,> 100,> 100,,> 100,,,0.0219 µM,> 100,,0.0218,< 0.01,,< 0.01,> 100,0.0537,,,< 0.01,< 0.01,
CCCCCN(CCCCC)C(=O)[C@H](CCC(=O)O)NC(=O)c1cc2ccccc2[nH]1,,> 100,92.5,> 100,85.8,> 100,> 100 µM,> 100,98.4,,,,,61.8,,,,,,
Cc1cc(Cl)nc(N(CCCNc2ccnc3cc(Cl)ccc23)Cc2cccs2)n1,9.13,> 100,2.64,6.2,5.8,11,,12.5,13.6,2.52,2.56,0.437,,,0.856,1.28,1.56,,1.4,2.08
CCn1cc(C(=O)N/N=C/c2cccs2)c(=O)c2cc(F)c(N3CCNC(C)C3)c(F)c21 (stereo unspecified),36.9,,,,3.47,3.24,3.45 µM,2.88,2.83,12.3,,,,,,1.79,1.75,1.85,1.55,1.47
COC(=O)c1ccc(NC(=O)c2ccc(NC3=C(Cl)C(=O)N(Cc4ccccc4)C3=O)cc2)cc1,32.1,,11.8,11.2,24.4,> 100,22 µM,21.7,64.4,16.4,,3.47,12.8,25.4,1.53,12.1,27.3,10.2,8.13,28.8
C=CCC(N[C@H](CO)c1ccccc1)c1ccccn1 (stereo partly specified),> 100,> 100,> 100,> 100,> 100,,> 100 µM,> 100,> 100,> 100,> 100,> 100,38.6,> 100,88.2,> 100,,> 100,> 100,> 100
